Values quoted from earlier work in patent US20050250804A1, “Pharmaceutical gel formulations” (Glenmark Pharmaceuticals Limited, priority 2004, published 2005).

Experiments:
human subjects = conditions: repeated insult patch test, 50 human subjects, total of 15 applications; manufacturer's brochure
[1] = system: Interleukin-2, interferon gamma, Interleukin-4 and Interleukin-10 cytokine synthesis in human T cells

PII (rabbit skin) | SMILES | primary dermal irritation / sensitization (human subjects) | skin irritation (rabbit skin) | concentration inhibiting IL-2, interferon gamma (Th1-type), IL-4 and IL-10 (Th2-type) cytokine synthesis [1]
0.5 | CN1CCCC1=O [Pharmasolve®, N-methyl-2-pyrrolidone] | neither a primary dermal irritant nor a sensitizer | practically nonirritating | 
 | CC[C@@H]1/C=C(\C)C[C@H](C)C[C@H](OC)[C@H]2O[C@@](O)(C(=O)C(=O)N3CCCC[C@H]3C(=O)O[C@H](/C(C)=C/[C@@H]3CC[C@H](Cl)[C@H](OC)C3)[C@H](C)[C@@H](O)CC1=O)[C@H](C)C[C@@H]2OC [pimecrolimus, (1R,9S,12S,13R,14S,17R,18E,21 S,23S,24R,25S,27R)-12-[(1E)-2-{(1R,3R,4S)-4-chloro-3-methoxycyclohexyl}-1-methylvinyl]-17-ethyl-1,14-dihydroxy-23,25-dimethoxy-13,19,21,27-tetramethyl-11,28-dioxa-4-aza-tricyclo[22.3.1.04,9]octacos-18-ene-2,3,10,16-tetraone] |  |  | nanomolar concentrations
